Here are results for 3 compounds from patent publication US4689331A, “Substituted 2-pyridinyl benzimidazoles, and their use for inhibiting gastric acid secretion” (priority 1984, dated 1987).

As a reminder, the ED50 is the midpoint of the dose-response relation.

In one test the target is T1, gastric H^+,K^+ -ATPase (Sus scrofa, UniProt P19156).
T1 construct: from tissue; host or cells: hog stomach, purified membrane fraction (GI fraction of Saccomani et al. 1977)
The test can be described thus: In vitro inhibition of gastric H+,K+-ATPase. Format: biochemical. The settings on record: hog gastric membrane, pH 7.4, 30 min incubation, negative log of concentration (M) giving 50% inhibition. As to the method:
I. In vitro inhibition of gastric H^+,K^+ -ATPase
Hog gastric H^+,K^+ -ATPase was purified according to Saccomani et al., Biochim. Biophys. Acta 465, 311-330, 1977. 10 μg of membrane protein (GI-fraction in the reference listed above) was incubated with 2 mmol/l of piperazine-N,N'bis-(2-ethane sulfonic acid) buffer pH 7.4 and the test compound in concentrations 10^-7 -10^-4 M in a final volume of 1 ml. (The test compound was dissolved in methanol. Aliquots of these stock solutions were diluted to a final methanol concentration below 1%, which on its own had no effect on the enzyme activities.) After 30 minutes of incubation, the remaining H^+,K^+ -ATPase activity was determined, according to Wallmark et al., Biochim. Biophys. Acta, 728, 31-38, 1983. A dose-response curve was constructed and the concentration at half-maximal inhibition (IC50) could be determined.
pIC50 is the negative logarithm of the concentration (in M) of the test compound giving 50% inhibition.

For test [1], the system named is ethanol-induced gastric lesions. Kind of test: In vivo cytoprotective effect: effect on ethanol-induced gastric lesions in the rat. The settings on record: oral, 30 min before 1 ml absolute ethanol, dose giving 50% reduction of total lesion length vs control (11.0 cm); for ED50: Rattus norvegicus, read-out: III Rat Cytoprot. ED50. The arrangement: species or system rat (female Spraque-Dawley). As to the method: III. In vivo cytoprotective effect: Effect on ethanol-induced gastric lesions in the rat
Two groups of female Spraque-Dawley rats (190-220 g) were used, one for the test compound and one for the control experiment. Food, but not water, was removed 24 h before the experiments.
The animals in the test group were treated orally with the test compound dissolved in 10% ethanol in 0.5% Methocel® immediately before use and the animals in the control group were given the vehicle only in a dose of 2.5 ml/kg.
Thirty minutes later the rats were given orally 1 ml of absolute ethanol (a standard agent for inducing gastric mucosal lesions).
Sixty minutes later the rats were killed by carbon dioxide asphyxiation, their stomachs dissected out and the gastric mucosae were examined for the presence of necrotic lesions. The total lengths of the lesions in the stomachs were measured in the test group and in the control group, in both cases treated thirty minutes before with ethanol.
The ED50 -value represents the dose of the compound giving 50% reduction of the total lengths of lesions compared to the total lengths of lesions of the control experiment (11.0 cm).

The next test concerns gastric acid secretion. Kind of test: Inhibiting effect in vivo on gastric acid secretion in conscious dog. Conditions: conscious chronic gastric fistula dog, oral by stomach tube, histamine-induced secretion, 1 h after dosing, peak inhibitory effect. On the procedure:
II. Inhibiting effect in vivo on gastric acid secretion in conscious dog
Chronic gastric fistula dogs were used. These dogs have been surgically provided with a gastric cannula in the stomach and a duodenal fistula used for direct intraduodenal administration of test compounds. Following a 4 week's recovery period after surgery, tests were performed once a week on each dog. Food and water were withdrawn 18 hours before each test.
The test compound dissolved in 5% ethanol in 0.5% Methocel® (90 HG, 15.000, Dow Chem Corp.) was administered orally by using a stomach tube. After 1 hour gastric acid secretion was induced by continuous infusion of histamine at individual doses (400-600 nmol/kg, h), resulting in approx. 90% of maximal secretion of gastric acid. The gastric juice was collected by free flow from the gastric cannula in consecutive 30 minutes samples for 2 hours. The samples were titrated to pH 7.0 with 0.1M NaOH using a Radiometer automatic titrator and the acid output was calculated. The percent inhibition of acid secretion was calculated by comparing in each dog the acid output in the test to the acid output in control tests when only the vehicle was given. The peak inhibitory effect for each compound was determined.

T1 sequence (P19156 2-1034 limits assumed): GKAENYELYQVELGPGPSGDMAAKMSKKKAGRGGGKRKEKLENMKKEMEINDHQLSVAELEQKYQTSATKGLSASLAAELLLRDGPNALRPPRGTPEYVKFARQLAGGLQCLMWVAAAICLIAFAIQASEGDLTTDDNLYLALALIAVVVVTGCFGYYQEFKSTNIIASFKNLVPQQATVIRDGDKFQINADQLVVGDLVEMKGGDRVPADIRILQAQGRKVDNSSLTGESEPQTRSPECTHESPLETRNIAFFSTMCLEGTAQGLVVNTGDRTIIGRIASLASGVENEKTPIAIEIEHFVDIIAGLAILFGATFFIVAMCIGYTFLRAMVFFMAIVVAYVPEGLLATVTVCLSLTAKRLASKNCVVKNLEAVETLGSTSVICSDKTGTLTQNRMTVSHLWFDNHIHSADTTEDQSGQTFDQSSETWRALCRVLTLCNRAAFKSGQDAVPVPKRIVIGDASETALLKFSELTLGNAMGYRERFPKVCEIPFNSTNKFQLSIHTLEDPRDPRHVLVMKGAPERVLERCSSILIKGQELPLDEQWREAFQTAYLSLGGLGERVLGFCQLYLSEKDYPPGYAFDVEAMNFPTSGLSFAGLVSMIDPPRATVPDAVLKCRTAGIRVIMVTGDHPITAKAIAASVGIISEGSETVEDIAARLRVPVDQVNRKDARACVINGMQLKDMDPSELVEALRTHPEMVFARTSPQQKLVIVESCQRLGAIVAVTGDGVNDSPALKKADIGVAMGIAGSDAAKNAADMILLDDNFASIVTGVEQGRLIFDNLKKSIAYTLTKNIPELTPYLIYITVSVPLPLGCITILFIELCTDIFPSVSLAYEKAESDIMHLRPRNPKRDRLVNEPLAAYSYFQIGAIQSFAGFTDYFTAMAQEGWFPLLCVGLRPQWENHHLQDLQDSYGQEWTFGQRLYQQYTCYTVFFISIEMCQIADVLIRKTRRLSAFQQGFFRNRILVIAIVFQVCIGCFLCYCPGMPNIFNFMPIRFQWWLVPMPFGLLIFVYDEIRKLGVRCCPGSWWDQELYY
T1 sequence (P18434 whole entry partner): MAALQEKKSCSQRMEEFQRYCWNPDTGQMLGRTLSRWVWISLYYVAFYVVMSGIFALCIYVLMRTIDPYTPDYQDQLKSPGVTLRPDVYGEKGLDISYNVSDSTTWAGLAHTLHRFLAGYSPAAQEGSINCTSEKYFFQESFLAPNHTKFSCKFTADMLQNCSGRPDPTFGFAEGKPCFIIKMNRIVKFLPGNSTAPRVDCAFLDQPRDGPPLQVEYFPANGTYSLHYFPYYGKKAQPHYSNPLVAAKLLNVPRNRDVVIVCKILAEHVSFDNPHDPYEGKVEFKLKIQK

On to `COc1ccc2[nH]c(-[n+]3cc(C)c(OC)c(C)c3CSSCCO)nc2c1.[O-][Cl+3]([O-])([O-])[O-]` [Example 1, 3,5-dimethyl-4-methoxy-2-[(2-hydroxyethyl)dithiomethyl]-1-(5-methoxy-2-benzimidazolyl)-pyridiniumperchlorate], for which, on gastric H^+,K^+ -ATPase, the “I Enzyme pIC50” value is recorded as 5.0. In addition, in test [1], the “III Rat Cytoprot. ED50” value was determined as 15 µmol/kg. In the test on gastric acid secretion, the “II Dog Gast. acid secr. inhib. ED50” value is 6 µmol/kg.
Take `COc1ccc2[n-]c(-[n+]3cc(C)c(OC)c(C)c3CSSCC(=O)O)nc2c1` [Example 7]: the IC50 on gastric H^+,K^+ -ATPase (read-out: I Enzyme pIC50 (converted)) was 3.16e-05 M. For the same compound, in test [1], the ED50 stood at 30 µmol/kg.
As for `COc1c(C)c[n+](-c2nc3ccccc3[n-]2)c(CSC#N)c1C` [Example 14], the ED50 in test [1] is 20 µmol/kg; in the test with gastric acid secretion (Canis lupus familiaris, read-out: II Dog Gast. acid secr. inhib. ED50) it was 9 µmol/kg.
